Data from patent publication US20230241064A1, “METHODS OF TREATMENT AND/OR PREVENTION OF MAJOR ADVERSE CARDIOVASCULAR EVENTS (MACE) WITH A COMBINATION OF A BET BROMODOMAIN INHIBITOR AND A DIPEPTIDYL PEPTIDASE 4 INHIBITOR” (Resverlogix Corp., priority 2020, published 2023).

Tests used:
[1] = EXAMINE; cited from earlier work
[2] = system: type 2 diabetes patients with low HDL cholesterol and a recent acute coronary syndrome (ACS); test: BETonMACE post-hoc analysis: cumulative incidence of cardiovascular death; format: in vivo, human; settings: patients without DPP-4 inhibitor; vs placebo (non-treatment); FIG. 11
Description: (§1) Apabetalone (RVX-208) was evaluated in a recently completed clinical Phase 3 trial (BETonMACE; NCT02586155) for the effect on MACE in type 2 diabetes patients with low HDL cholesterol (below 40 mg/dL for males and below 45 mg/dL for females) and a recent acute coronary syndrome (ACS). All patients received high intensity statin treatment, which was 20-40 mg daily or a maximum daily dose of 40 mg for rosuvastatin or 40-80 mg daily or a maximum daily dose of 80 mg for atorvastatin.
(§2) Patients (n=2425) with ACS in the preceding 7 to 90 days, with type 2 diabetes and low HDL cholesterol (≤40 mg/dl for men, ≤45 mg/dl for women), receiving intensive or maximum-tolerated therapy with atorvastatin or rosuvastatin, were assigned in double-blind fashion to receive apabetalone 100 mg orally twice daily or matching placebo. Baseline characteristics include female sex (25%), myocardial infarction as index ACS event (74%), coronary revascularization for index ACS (76%), treatment with dual anti-platelet therapy (87%) and renin-angiotensin system inhibitors (91%), median LDL cholesterol 65 mg per deciliter, and median HbA1c 7.3%. The primary efficacy measure is time to first occurrence of cardiovascular death, non-fatal myocardial infarction, or stroke. Assumptions include a primary event rate of 7% per annum in the placebo group and median follow-up of 1.5 years. […]

[3] = system: type 2 diabetes patients with low HDL cholesterol and a recent acute coronary syndrome (ACS); test: BETonMACE post-hoc analysis: cumulative incidence of hospitalization for congestive heart failure; format: in vivo, human; settings: patients without DPP-4 inhibitor, vs placebo (non-treatment)
[4] = system: type 2 diabetes patients with low HDL cholesterol and a recent acute coronary syndrome (ACS); test: BETonMACE post-hoc analysis: cumulative incidence of non-fatal myocardial infarction; format: in vivo, human; settings: patients without DPP-4 inhibitor; vs placebo (non-treatment); FIG. 8
Description: as §1, §2

[5] = system: type 2 diabetes patients with low HDL cholesterol and a recent acute coronary syndrome (ACS); test: BETonMACE post-hoc analysis: cumulative incidence of broadly defined MACE; format: in vivo, human; settings: patients without DPP-4 inhibitor; vs placebo (non-treatment); FIG. 5
[6] = system: type 2 diabetes patients with low HDL cholesterol and a recent acute coronary syndrome (ACS); test: BETonMACE Phase 3 trial post-hoc analysis: cumulative incidence of narrowly defined MACE; format: in vivo, human
Description: Patients (n=2425) with ACS in the preceding 7 to 90 days, with type 2 diabetes and low HDL cholesterol (≤40 mg/dl for men, ≤45 mg/dl for women), receiving intensive or maximum-tolerated therapy with atorvastatin or rosuvastatin, were assigned in double-blind fashion to receive apabetalone 100 mg orally twice daily or matching placebo. Baseline characteristics include female sex (25%), myocardial infarction as index ACS event (74%), coronary revascularization for index ACS (76%), treatment with dual anti-platelet therapy (87%) and renin-angiotensin system inhibitors (91%), median LDL cholesterol 65 mg per deciliter, and median HbA1c 7.3%. The primary efficacy measure is time to first occurrence of cardiovascular death, non-fatal myocardial infarction, or stroke. Assumptions include a primary event rate of 7% per annum in the placebo group and median follow-up of 1.5 years. Patients were followed until at least 250 primary endpoint events had occurred, providing 80% power to detect a 30% reduction in the primary endpoint with apabetalone.
Those patients who received at least one dose of DPP-4 inhibitor treatment after the date of the first incidence of event were censored as non-MACE events and the date of last contact was used as the censoring date.
The distributions of the endpoints within the apabetalone and placebo groups were compared using a two-sided log-rank test (LRT) with an alpha=0.05 level of significance. The cumulative incidence is shown as 1-KM (Kaplan-Meier) estimate for event rate.

[7] = vs placebo; TECOS trial; cited from earlier work

SMILES: Cn1c(=O)cc(N2CCC[C@@H](N)C2)n(Cc2ccccc2C#N)c1=O [alogliptin]
- effect on the 3-point MACE composite outcome of cardiovascular death, myocardial infarction, or ischemic stroke [1]: neutral effect

SMILES: COc1cc(OC)c2c(=O)[nH]c(-c3cc(C)c(OCCO)c(C)c3)nc2c1 [apabetalone, 2-(4-(2-hydroxyethoxy)-3,5-dimethylphenyl)-5,7-dimethoxyquinazolin-4(3H)-one]
- Hazard Ratio, cardiovascular death [2]: 0.97
- reduction of number of patients having a hospitalization for congestive heart failure event at any given time [3]: 27%
- Hazard Ratio, hospitalization for congestive heart failure ([3]; FIG. 14): 0.73
- Hazard Ratio, non-fatal myocardial infarction [4]: 0.99
- Hazard Ratio, broadly defined MACE [5]: 1.00
- number of primary end points (narrowly defined MACE: cardiovascular death, non-fatal myocardial infarction, or stroke) ([6]; apabetalone 100 mg orally twice daily, on statin, per treatment group): 114
- Kaplan-Meier estimated event rate, narrowly defined MACE ([6]; at 18 months): 8.0%
- Hazard Ratio, narrowly defined MACE ([6]; patients without DPP-4 inhibitor, vs placebo (non-treatment), FIG. 2): 0.99
- primary end points (narrowly defined MACE) as percent of group ([6]; per treatment group): 10.9%

SMILES: N[C@@H](CC(=O)N1CCn2c(nnc2C(F)(F)F)C1)Cc1cc(F)c(F)cc1F [sitagliptin]
- hazard ratio (HR), 3-point MACE composite outcome [7]: 0.99
- hazard ratio (HR), 4-point MACE composite outcome [7]: 0.98
